Data as given in patent US7250402B2, “Avermectin derivatives” (The Kitasato Institute, priority 2000, dated 2007).

Key:
artemia salina = assay: Insecticidal model activity against artemia salina (Brine shrimp) in 96 well microplate (movement graded 0-3, MIC); format: in vivo; conditions: concentration required to give Indication 2 (or 3) for artemia salina; 20° C., observed after 24 and 48 hours
Description: (§1) Methods for determining antiparasitic effects of the compounds disclosed according to the present invention are explained below.
(§2) As model insects for simple determination of antiparasitic and insecticidal activities, those insects are desired which can be easily obtained and bred in laboratories, and have no pathogenicity to a human. Caenorhabditis elegans, an unparasitic eelworm widely used in experiments of genetics, was used as a typical steam worm, and artemia salina used as feed for tropical fish and named Brine shrimp, was used instead of insects.
<Preparation of Artemia salina Used for Evaluation>
To a buffer for artemia salina (obtained by dissolving 0.24% of Tris, 2.57% of sodium chloride, 0.47% of magnesium chloride, 0.07% of potassium chloride, 0.02% of sodium carbonate, 0.64% of magnesium sulfate and 0.11% of calcium chloride in distilled water and adjusting the pH to 7.1 with hydrochloric acid), dried eggs of artemia salina [Tetra Brine Shrimp Eggs, Warner Lambert Co.] were added. The noprius larvae 1 or 2 days after hatching were used for the experiments.
(§3) Each well of a 96 well microplate was filled with the solution of the test compound (methanol as a solvent), and the solvent was removed using a vacuum pump, then 250 μl of the assay medium was added to each wells (the assay medium was prepared by dissolving 7.5 mM sodium hydrogencarbonate, 7.5 mM potassium chloride, 7.5 mM calcium chloride dihydrate and 7.5 mM magnesium sulfate heptahydrate in distilled water and adding 0.01% of lecithin to the solution), and then the microplate was shaken using a microplate mixer for 15 minutes. To each well, a few individuals of caenorhabditis elegans were added by softly rubbing the surface of the agar using a toothpick, or a few individuals of artemia salina were added together with 50 μl of the buffer. The microplate was incubated at 20° C., and then the insects were observed after 24 and 48 hours under a microscope (magnification of 40×). The results were compared to those obtained without addition of the test compound, and evaluated by 4 grades.
(§4) The evaluation results were shown by indications of 4 grades from 0 to 3.
1: A little week movements
Of the 4 grades, Indications 3 and 2 were judged as effective, and Indications 1 and 0 as ineffective. In Table 7, the values for each compound are minimum inhibitory concentrations (MIC) which were required to give Indication 2 (or 3) for caenorhabditis elegans or artemia salina. In Table 7, caenorhabditis elegans and artemia salina are abbreviated as C.E. and A.S., respectively.

Caenorhabditis elegans = assay: Antiparasitic activity against Caenorhabditis elegans in 96 well microplate (movement graded 0-3, MIC); format: in vivo; conditions: concentration required to give Indication 2 (or 3) for caenorhabditis elegans; 20° C., observed after 24 and 48 hours
Description: as §1, §2
Preparation of Caenorhabditis elegans Used for Evaluation
Escherichia coli for the feed of caenorhabditis elegans (mutant having uracil requirement) was inoculated in a seed medium for E. coli to which a small amount of uracil was added, and cultured with shaking at 27° C. for 1 day. A petri dish of 6 cm diameter was filled with 10 mL of an agar medium for eelworm proliferation, and the medium was solidified. Then 0.5 mL of the culture of E. coli was spread over the medium in the dish, and the dish was incubated at 37° C. to proliferate E. coli. A piece of the agar was collected with a platinum loop from a petri dish in which caenorhabditis elegans successfully proliferated, and inoculated in petri dishes in which E. coli was proliferated. The petri dishes were incubated at 20° C. to proliferate caenorhabditis elegans. Since the life of eelworm is about 2 weeks, subculture was carried out every once a week. The eelworms grown with spread on the surface of the petri dish after 3 to 5 days from subculture were used for the experiments.
<Preparation of Agar Medium for Eelworm Proliferation>
Solution A was obtained by dissolving 0.3% of sodium chloride, 1.7% of bact-agar (DIFCO Co.), 0.5% of bact-peptone (DIFCO Co.) and 1.0% of yeast extract (DIFCO Co.) in distilled water.
Solution B was obtained by dissolving 0.5% of cholesterol in ethanol.
Solution C was obtained by dissolving 13.9% of calcium chloride in distilled water.
Solution D was obtained by dissolving 30.8% of magnesium sulfate heptahydrate in distilled water.
Solution E was obtained by dissolving 13.54% of KH2PO4 and 4.45% of K2HPO4 in distilled water.
The aforementioned Solutions A, C and D were sterilized in an autoclave at 121° C. for 20 minutes, and each solution was stored at 4° C.
The agar medium for eelworm proliferation was prepared by mixing the solutions in the following proportion: Solution A: 100 mL, Solution B: 0.1 mL, Solution C: 0.05 mL, Solution D: 0.1 mL and Solution E: 2.5 mL (without pH adjustment), and dispensing each 10 mL portion into petri dishes of 60×15 mm.
<Preparation of E. coli Seed Medium>
In distilled water, 2.0% of bact-trypton (DIFCO Co.), 0.55% of sodium chloride and 0.001% of uracil (SIGMA Co., pH 7.4) were dissolved, and the solution was sterilized in an autoclave at 121° C. for 20 minutes.
as §3, §4
1: A little week movements […]

Row | Compound | A.S. minimum inhibitory concentrations (MIC) (artemia salina) | C.E. minimum inhibitory concentrations (MIC) (Caenorhabditis elegans)
1 | CCC(C)C1OC2(CCC1C)CC1CC(CC=C(C)C(OC3CC(OC)C(O)C(C)O3)C(C)C=CC=C3COC4C(O)C(C)=CC(C(=O)O1)C34O)O2 (stereo not drawn) [Ivermectin monosaccharide, 22,23-dihydroavermectin B1a monosaccharide] | 2 ng/mL | 2 ng/mL
2 | CCC(C)C1O[C@]2(C=C[C@@H]1C)C[C@@H]1CC(C/C=C(\C)[C@@H](OC3C[C@H](OC)[C@@H](OC4C[C@H](OC)[C@@H](O)[C@H](C)O4)[C@H](C)O3)[C@@H](C)/C=C/C=C3\COC4[C@H](O)C(C)=CC(C(=O)O1)[C@]34O)O2 (stereo partly drawn) [Avermectin B1a] | 0.5 ng/mL | 2 ng/mL
3 | Ivermectin | 2 ng/mL | 2 ng/mL
4 | CCC(C)C1OC2(CC[C@@H]1C)CC1CC(C/C=C(\C)C(O[C@H]3CC(OC)C(=CC#N)C(C)O3)[C@@H](C)/C=C/C=C3\COC4C(O)C(C)=CC(C(=O)O1)[C@]34O)O2 (stereo partly drawn) [Compound 22] | 2 ng/mL | 2 ng/mL
5 | CC[C@H](C)[C@H]1O[C@]2(C=C[C@@H]1C)C[C@@H]1C[C@@H](C/C=C(\C)[C@@H](O[C@H]3C[C@H](OC)[C@@H](O)[C@H](C)O3)[C@@H](C)/C=C/C=C3\CO[C@@H]4[C@H](O)C(C)=C[C@@H](C(=O)O1)[C@]34O)O2 [Avermectin B1a monosaccharide, avermectin B1a monosaccharide] | 2 ng/mL | 2 ng/mL
6 | CCC(C)C1OC2(C=C[C@@H]1C)CC1CC(C/C=C(\C)C(O[C@H]3CC(OC)C(=CC(=O)O)C(C)O3)[C@@H](C)/C=C/C=C3\COC4C(O)C(C)=CC(C(=O)O1)[C@]34O)O2 (stereo partly drawn) [Compound 6] | 2 ng/mL | 2 ng/mL
